Measured values from patent US11208379B2, “Compounds, compositions, methods for treating diseases, and methods for preparing compounds” (UNIVERSITY OF LOUISVILLE RESEARCH FOUNDATION, INC., priority 2017, dated 2021).

System: A549 lung cancer cells
Test: Cell death / cell survival by trypan blue exclusion
Format: cell-based, human
Details: A549, 1 μM, FIG. 36 top panel
Protocol: A549 (human lung adenocarcinoma) cells and MDA-MB-231 (human breast adenocarcinoma) cells were cultured in DMEM medium containing 10% FBS and 1% Penicillin/Streptomycin. IMR-90 (human non-malignant lung fibroblast) cells were cultured in EMEM medium containing 10% FBS and 1% Penicillin/Streptomycin. MCF10A (human non-malignant breast epithelial) cells in MEBM containing 10% FBS. Cell viability after treatment was determined using 3-(4,5-dimethylthiazol-2-yl)-2,5-diphenyltetrazolium bromide (MTT). After 72 h treatment with compound, a 5 mg/ml solution MTT of (Sigma, St. Louis, Mo.) was added in at 1/10 total sample volume. Cells were then incubated for 4 h. Lysis buffer (10% SDS in 0.01 N HCl) was added at half of the original sample volume and incubated overnight. Plates were read at 570 nm. Graphs indicate average of one or two experiments (performed in quadruplet wells)±SEM. Cell death in A549 cells was assessed by trypan blue exclusion. […] ROS production in A549 lung cancer cells after 48 h treatment with the compounds was assayed using ROS-Glo™ H2O2 Assay Kit (Promega).
A549 (human lung adenocarcinoma) cells and MDA-MB-231 (human breast adenocarcinoma) cells were cultured in DMEM medium containing 10% FBS and 1% Penicillin/Streptomycin. IMR-90 (human non-malignant lung fibroblast) cells were cultured in EMEM medium containing 10% FBS and 1% Penicillin/Streptomycin. […]

## CCOC(=S)N/N=C(C)/C(C)=N/NC(=S)NC [I-4]
  cell viability (trypan blue exclusion): less effective
